Laboratory results taken from US7919488B2, “Therapeutic compounds” (Pfizer Inc., priority 2006, dated 2011).

How the values were obtained:
Format in all cases: biochemical
[1] = target: T1, recombinant CYP3A4-b5 enzyme (Baculosomes®) (Homo sapiens, UniProt P08684); experiment: Kiapp against recombinant CYP3A4 enzyme (Baculosomes), BFC substrate; details: recombinant CYP3A4-b5 (Invitrogen), 5 uM BFC, 200 uM NADPH, pre-incubation at least 30 minutes, pH 7.0, room temperature
T1 construct: purchased Invitrogen (Carlsbad, Calif.)
Protocol: 1. Determination of Compound Kiapp
A determination of the Kiapp of the compounds of the invention against recombinant CYP3A4 enzyme was performed as follows. The assay was performed in a 100 mM sodium phosphate buffer pH 7.0, 5 mM TCEP and containing 2% dimethylformamide (final concentration) upon addition of substrate and inhibitor. A typical reaction for the determination of Kiapp values was carried at room temperature in a solid black Costar u-bottom 96-well polypropylene plate. […] When pre-incubation was completed (˜30 min), the reaction was initiated by adding NADPH (200 uM, final concentration), and 7-benzyloxy-4-(trifluoromethyl)-coumarin (BFC) (5 uM, final concentration). The oxidation of the coumarin substrate was recorded by a 96-well plate reader POLARstar (BMG LABTECH, Offenburg, Germany).
The initial reaction velocities were measured during the first 5 min of the reaction when the release of the fluorescent product is linear with time, in the absence and in the presence of various concentrations of inhibitors.
The fluorescent substrate BFC was purchased from Sigma (St Louis, Mo.). Two commercial sources of recombinant enzymes were used in this study: recombinant CYP3A4-b5 enzyme (Baculosomes®) was purchased from Invitrogen (Carlsbad, Calif.) and the recombinant CYP3A4+b5 enzyme (Supersomes®) was purchased from BD Biosciences (Woburn, Mass.).

[2] = target: T2, CYP3A4 (Homo sapiens, UniProt P08684); experiment: IC50 against CYP3A4 by inhibition of testosterone metabolism in human liver microsomes; details: 0.1 mg/mL human liver microsomes, 25 μM testosterone, 1 mM NADPH, 6-β-OH-testosterone production, eight minutes; read-out: IC50, μM (HLM, testosterone)
T2 construct: 0.1 mg/mL human liver microsomes; from tissue; host or cells: human liver microsomes
Protocol: 2. Determination of IC50 Against CYP3A4 by Measurement of Inhibition of Testosterone Metabolism
This assay was performed using a standard 96 well plate design. […] Quantitation of metabolite peak area ratio against an internal standard is determined by LC-MS/MS analysis. The production of 6-β-OH-testosterone from testosterone metabolism is determined after incubation for eight minutes by comparison to a standard curve generated for the metabolite
(§1) Samples were analyzed in the MRM mode using a Sciex API 3000 mass spectrometer (Applied Biosystems, Foster City, Calif.) with a Paradigm MS4 binary pump (Michrom BioResources Inc., Auburn, Calif.) and a LEAP CTC PAL autosampler (LEAP Technologies, Carrboro, N.C.). A Phenomenex Synergi, 4μ, Polar-RP, 10×2.0 mm column (Phenomenex, Torrance, Calif.) was used for separation with a mobile phase composition of: 0.1% formic acid in water (A) and: 0.1% formic acid in methanol (B). The following gradient was used: […]
(§2) The sample injection volume was 10 μL and flow was split post-column with 0.4 mL/min going to the mass spectrometer. Analysis was performed using the following API 3000 mass spectrometer settings: […]

[3] = target: T2, CYP3A4; experiment: IC50 against CYP3A4 by inhibition of midazolam metabolism in human liver microsomes; details: 0.1 mg/mL human liver microsomes, 2 μM midazolam, 1 mM NADPH, 1-hydroxymidazolam production, eight minutes; read-out: IC50, μM (HLM, midazolam)
Protocol: 3. Determination of IC50 Against CYP3A4 by Measurement of Inhibition of Midazolam Metabolism
This assay was performed using a standard 96 well plate design. […] The incubation substrate mix contains 2 μM midazolam, 0.1 mg/mL human liver microsomes, 1 mM NADPH, and potassium phosphate buffer (100 mM, pH 7.4). Quantitation of metabolite peak area ratio against internal standard is determined by LC-MS/MS analysis. The production of 1-hydroxymidazolam from midazolam metabolism is determined after incubation for eight minutes by comparison to a standard curve generated for the metabolite.
as §1, §2

T1 sequence (P08684 whole entry): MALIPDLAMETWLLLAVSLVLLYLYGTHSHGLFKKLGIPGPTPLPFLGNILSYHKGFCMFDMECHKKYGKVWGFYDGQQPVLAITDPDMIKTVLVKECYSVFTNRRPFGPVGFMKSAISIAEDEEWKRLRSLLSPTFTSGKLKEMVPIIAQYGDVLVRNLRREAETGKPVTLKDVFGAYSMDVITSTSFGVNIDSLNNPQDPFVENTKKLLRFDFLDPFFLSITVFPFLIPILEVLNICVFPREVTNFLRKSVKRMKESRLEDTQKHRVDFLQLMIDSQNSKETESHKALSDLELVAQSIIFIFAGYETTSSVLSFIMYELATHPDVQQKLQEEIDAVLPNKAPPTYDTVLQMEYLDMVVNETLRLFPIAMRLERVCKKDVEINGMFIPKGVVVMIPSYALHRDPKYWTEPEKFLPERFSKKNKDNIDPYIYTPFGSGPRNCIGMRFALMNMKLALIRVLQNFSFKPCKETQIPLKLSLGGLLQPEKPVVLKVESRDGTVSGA
T2 sequence (P08684 whole entry): as above

Structure (SMILES)	Ki [1]	IC50 [2]	IC50 [3]
CNC1CCN(C(=O)Cn2nc(-c3ccncc3)cc2Cc2ccc(F)cc2)C1 (stereo not drawn) [Example 74, 1-{[5-(4-fluorobenzyl)-3-pyridin-4-yl-1H-pyrazol-1-yl]acetyl}-N-methylpyrrolidin-3-amine]	0.19 µM	0.114 µM	0.046 µM
O=C(Cn1nc(-c2ccncc2)cc1Cc1ccc(F)cc1)N1CCC[C@@H]1CO [Example 75, [(2R)-1-{[5-(4-fluorobenzyl)-3-pyridin-4-yl-1H-pyrazol-1-yl]acetyl}pyrrolidin-2-yl]methanol]	0.118 µM	0.0215 µM	0.0175 µM
O=C(Cn1nc(-c2ccncc2)cc1Cc1ccc(F)cc1)NCc1ncc(F)cn1 [Example 81, 2-[5-(4-fluorobenzyl)-3-pyridin-4-yl-1H-pyrazol-1-yl]-N-[(5-fluoropyrimidin-2-yl)methyl]acetamide]	0.124 µM	0.068 µM	0.063 µM
CC(Cc1cnccn1)NC(=O)Cn1nc(-c2ccncc2)cc1Cc1ccc(F)cc1 (stereo not drawn) [Example 82, 2-[5-(4-fluorobenzyl)-3-pyridin-4-yl-1H-pyrazol-1-yl]-N-(1-methyl-2-pyrazin-2-ylethyl)acetamide]	0.109 µM	0.025 µM	0.023 µM
CN(C(=O)Cn1nc(-c2ccncc2)cc1Cc1ccc(F)cc1)[C@H]1CC[C@H](O)CC1 [Example 83, 2-[5-(4-fluorobenzyl)-3-pyridin-4-yl-1H-pyrazol-1-yl]-N-(trans-4-hydroxycyclohexyl)-N-methylacetamide]	0.0458 µM	0.0235 µM	0.015 µM
NC(=O)[C@@H]1CCC[C@@H]1NC(=O)Cn1nc(-c2ccncc2)cc1Cc1ccc(F)cc1 [Example 84, (1R,2S)-2-({[5-(4-fluorobenzyl)-3-pyridin-4-yl-1H-pyrazol-1-yl]acetyl}amino)cyclo-pentanecarboxamide]	0.156 µM	0.041 µM	0.021 µM
CC(NC(=O)Cn1nc(-c2ccncc2)cc1Cc1ccc(F)cc1)c1cnn(C)c1 (stereo not drawn) [Example 85, 2-[5-(4-fluorobenzyl)-3-pyridin-4-yl-1H-pyrazol-1-yl]-N-[1-(1-methyl-1H-pyrazol-4-yl)ethyl]acetamide]	0.0843 µM	0.028 µM	0.031 µM
Cc1c(CNC(=O)Cn2nc(-c3ccncc3)cc2Cc2ccc(F)cc2)cnn1C [Example 89, N-[(1,5-dimethyl-1H-pyrazol-4-yl)methyl]-2-[5-(4-fluorobenzyl)-3-pyridin-4-yl-1H-pyrazol-1-yl]acetamide]	0.0728 µM	0.015 µM	0.016 µM
Cc1noc(CNC(=O)Cn2nc(-c3ccncc3)cc2Cc2ccc(F)cc2)n1 [Example 90, 2-[5-(4-fluorobenzyl)-3-pyridin-4-yl-1H-pyrazol-1-yl]-N-[(3-methyl-1,2,4-oxadiazol-5-yl)methyl]acetamide]	0.0773 µM	0.012 µM	0.019 µM
Cc1noc(CCNC(=O)Cn2nc(-c3ccncc3)cc2Cc2ccc(F)cc2)n1 [Example 91, 2-[5-(4-fluorobenzyl)-3-pyridin-4-yl-1H-pyrazol-1-yl]-N-[2-(3-methyl-1,2,4-oxadiazol-5-yl)ethyl]acetamide]	0.112 µM	0.018 µM	0.019 µM
O=C(Cn1nc(-c2ccncn2)cc1Cc1ccc(F)cc1)N1CCN(c2ccccn2)CC1 [Example 97, 4-{5-(4-fluorobenzyl)-1-[2-oxo-2-(4-pyridin-2-ylpiperazin-1-yl)ethyl]-1H-pyrazol-3-yl}pyrimidine]	0.232 µM	< 0.012 µM	0.045 µM
CCS(=O)(=O)NC1CCN(C(=O)Cn2nc(-c3ccncc3)cc2Cc2ccc(F)cc2)CC1 [Example 102, N-(1-(2-[5-(4-fluorobenzyl)-3-pyridin-4-yl-1H-pyrazol-1-yl]acetyl}piperidin-4-yl)ethanesulfonamide]	0.107 µM	0.023 µM	0.012 µM

More lines, now with the values ahead:

Ki [1]	IC50 [2]	IC50 [3]	Structure (SMILES)
0.117 µM	0.0333 µM	< 0.0184 µM	O=C(Cn1nc(-c2ccncc2)cc1Cc1ccc(F)cc1)N1CCCC(O)C1 (stereo not drawn) [Example 76, 1-{[5-(4-fluorobenzyl)-3-pyridin-4-yl-1H-pyrazol-1-yl]acetyl}piperidin-3-ol]
0.166 µM	0.0545 µM	0.0511 µM	O=C(Cn1nc(-c2ccncc2)cc1Cc1ccc(F)cc1)N1CCC[C@H]1CO [Example 77, [(2S)-1-{[5-(4-fluorobenzyl)-3-pyridin-4-yl-1H-pyrazol-1-yl]acetyl}pyrrolidin-2-yl]methanol]
0.052 µM	0.019 µM	0.016 µM	CCn1ccnc1CNC(=O)Cn1nc(-c2ccncc2)cc1Cc1ccc(F)cc1 [Example 79, N-[(1-ethyl-1H-imidazol-2-yl)methyl]-2-[5-(4-fluorobenzyl)-3-pyridin-4-yl-1H-pyrazol-1-yl]acetamide]
0.0516 µM	0.065 µM	0.064 µM	CCc1nc(CNC(=O)Cn2nc(-c3ccncc3)cc2Cc2ccc(F)cc2)no1 [Example 80, N-[(5-ethyl-1,2,4-oxadiazol-3-yl)methyl]-2-[5-(4-fluorobenzyl)-3-pyridin-4-yl-1H-pyrazol-1-yl]acetamide]
0.0571 µM	0.013 µM	0.018 µM	Cc1cc(CNC(=O)Cn2nc(-c3ccncc3)cc2Cc2ccc(F)cc2)on1 [Example 86, 2-[5-(4-fluorobenzyl)-3-pyridin-4-yl-1H-pyrazol-1-yl]-N-[(3-methylisoxazol-5-yl)methyl]acetamide]
0.108 µM	0.019 µM	0.019 µM	Cn1ccnc1CNC(=O)Cn1nc(-c2ccncc2)cc1Cc1ccc(F)cc1 [Example 87, 2-[5-(4-fluorobenzyl)-3-pyridin-4-yl-1H-pyrazol-1-yl]-N-[(1-methyl-1H-imidazol-2-yl)methyl]acetamide]
0.0753 µM	0.016 µM	0.024 µM	Cc1cc(CNC(=O)Cn2nc(-c3ccncc3)cc2Cc2ccc(F)cc2)no1 [Example 88, 2-[5-(4-fluorobenzyl)-3-pyridin-4-yl-1H-pyrazol-1-yl]-N-[(5-methylisoxazol-3-yl)methyl]acetamide]
0.0241 µM	0.015 µM	0.007 µM	CCCN(C)C1(C(N)=O)CCN(C(=O)Cn2nc(-c3ccncc3)cc2Cc2ccc(F)cc2)CC1 [Example 92, 1-{[5-(4-fluorobenzyl)-3-pyridin-4-yl-1H-pyrazol-1-yl]acetyl}-4-[methyl(propyl)amino] piperidine-4-carboxamide]
0.0227 µM	< 0.0225 µM	< 0.013 µM	O=C(Cn1nc(-c2ccncc2)cc1Cc1ccc(F)cc1)N[C@H]1CC[C@H](O)CC1 [Example 96, 2-[5-(4-fluorobenzyl)-3-pyridin-4-yl-1H-pyrazol-1-yl]-N-(trans-4-hydroxycyclohexyl)-acetamide]
0.378 µM	0.082 µM	0.108 µM	O=C(Cn1nc(-c2ccncc2)cc1Cc1ccc(F)cc1)N1CC(O)C1 [Example 98, 1-{[5-(4-fluorobenzyl)-3-pyridin-4-yl-1H-pyrazol-1-yl]acetyl}azetidin-3-ol]
0.158 µM	0.035 µM	0.0105 µM	CCC(=O)NC1CCN(C(=O)Cn2nc(-c3ccncc3)cc2Cc2ccc(F)cc2)CC1 [Example 101, N-(1-(2-[5-(4-fluorobenzyl)-3-pyridin-4-yl-1H-pyrazol-1-yl]acetyl}piperidin-4-yl)propanamide]
